{"source": "patent US10314883B2", "about": "“Compositions and methods for regulating blood pressure” (University of Virginia Patent Foundation, priority 2015, dated 2019)", "key": {"[1]": {"molecular_target": "T1, Panx1 (Mus musculus, UniProt Q9JIP4)", "T1 construct": "we progressively substituted amino acids in this region of full-length Panx1 with alanine residues; HA; expressed in transfected cells; host or cells: HEK293T cells, transient co-transfection with alpha1DAR plasmid (Origene, NM_013460, C-terminal Myc-DDK)", "T1 sequence (Q9JIP4 whole entry)": "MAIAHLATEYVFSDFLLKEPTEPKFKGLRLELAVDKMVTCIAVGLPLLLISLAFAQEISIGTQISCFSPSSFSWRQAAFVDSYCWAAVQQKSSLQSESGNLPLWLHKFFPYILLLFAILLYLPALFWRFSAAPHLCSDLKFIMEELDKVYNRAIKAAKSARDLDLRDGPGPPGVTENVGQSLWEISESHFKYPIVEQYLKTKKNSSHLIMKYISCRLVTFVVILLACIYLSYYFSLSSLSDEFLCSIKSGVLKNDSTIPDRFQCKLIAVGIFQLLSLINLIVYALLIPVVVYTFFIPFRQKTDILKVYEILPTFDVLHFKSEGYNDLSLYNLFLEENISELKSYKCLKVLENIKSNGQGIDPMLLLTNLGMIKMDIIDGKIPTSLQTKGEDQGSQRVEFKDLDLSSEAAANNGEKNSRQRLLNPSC", "test": "Whole-cell patch clamp of CBX-sensitive Panx1 current in HEK293 cells cotransfected with mPanx1 and α1DAR", "format": "cell-based", "settings": "CBX 50 μmol/L after phenylephrine, +80 mV", "method": "Human Embryonic Kidney (HEK) 293T cells were cultured as previously described, and were used until passage 20. For ATP measurements, 50,000 cells/well were seeded in 24 well plates pre-coated with 0.01% poly-L-lysine, and transfected using Lipofectamine 2000 (Invitrogen) according to the manufacturer protocol. Briefly, 0.4 μg of α1DAR and 0.4 μg of Panx1^WT, Panx1^KYP>AAA, Panx1^IVEQ>AAA or Panx1^YLK>AAA plasmids were added to each well along with 2 μl of Lipofectamine 2000. For electrophysiology measurements, 4 μg of α1DAR plasmid, 2 μg of Panx1^WT, Panx1^KYP>AAA, Panx1^IVEQ>AAA or Panx1^YLK>AAA plasmids, and 0.5 μg of GFP plasmid were mixed with 10 μl Lipofectamine 2000 and added to a well of 6-well plate seeded with ˜70% confluent HEK cells. Cells were split the next morning and plated onto a glass coverslip for recording. ATP measurements and whole-cell recordings were performed 24 hours after transfection.\nWhole-cell recordings were obtained at room temperature from transiently transfected HEK293T cells using Axopatch 200B amplifier (Molecular Devices) in a bath solution composed of 140 mmol/L NaCl, 3 mmol/L KCl, 2 mmol/L MgCl2, 2 mmol/L CaCl2, 10 mmol/L HEPES and 10 mmol/L glucose (pH 7.3). Patch pipettes (3-5 MΩ) were filled with a Cs-/TEA-based internal solution, as previously described. Ramp voltage commands with 7-s intervals were applied using pCLAMP software and Digidata1322A digitizer (Molecular Devices). Peak whole-cell currents were determined at +80 mV and normalized to cell capacitance. Current mediated by Panx1 was defined by its sensitivity to carbenoxolone (CBX). In this system, no CBX-sensitive current is observed in HEK293T cells without Panx1. Basal current was recorded for approximately two minutes and PE (20 μmol/L) was applied to the bath solution, which was followed by addition of CBX (50 μmol/L). When indicated, cells were pre-incubated with bath solution containing IL2 peptide or its scrambled version at room temperature for 40-60 minutes prior to the experiment. The effect of PE on Panx1 current was quantified relative to CBX-sensitive basal current, and data was expressed as percent increase in CBX-sensitive current. All experiments were performed on 8 to 22 cells for each conditions tested. Data were analyzed using a Kruskall Wallis test (non-parametric one-way ANOVA) followed by Dunn's post-hoc test.\nTo test if α1AR stimulation triggered opening of the Panx1 channel and the importance of the region represented by the IL2 peptide, we cotransfected mPanx1 and α1DAR into HEK293 cells and monitored whole-cell currents by patch clamp electrophysiology."}, "[2]": {"molecular_target": "T2, Panx1 (Homo sapiens, UniProt Q96RD7)", "settings": "cited from earlier work"}, "[3]": {"tested_on": "anaesthetized guinea pigs", "settings": "injected into anaesthetized guinea pigs; cited from earlier work"}, "[4]": {"tested_on": "Cre/Panx1 mice", "test": "Blood pressure by radiotelemetry before and after tamoxifen in the conditional KO mouse model", "format": "in vivo", "method": "Blood pressure was measured using radiotelemetry units (Data Sciences International, DSI) implanted in C57Bl/6, Cre^−/Panx1^F1, Cre^−/Panx1^WT, Cre^+/Panx1^WT, and Cre^+/Panx1^F1 mice. The catheter of a radiotelemetry unit (TA11PA-C10, DSI) was implanted in the mouse left carotid artery under isoflurane anesthesia, and the catheter was tunneled trough the radiotransmitter placed in a subcutaneous pouch along the right flank of the mouse, as previously described. After implantation, mice were allowed to recover for seven days.\nFor experiments on the conditional KO mouse model: blood pressure was measured using Dataquest A.R.T. 20 software (DSI) for five days before proceeding to tamoxifen injections at 1 mg/kg for ten days. Blood pressure was recorded for another five days 24 hours after the last tamoxifen injection. The change in mean arterial pressure (ΔMAP) was calculated by subtracting the average MAP measured for five days before tamoxifen injections to the mean arterial pressure measured for five days after the tamoxifen injections. […]\nBased on the central role of α1AR signaling in blood pressure homeostasis, we evaluated the effect of Panx1 deletion on systemic blood pressure. Blood pressure was measured using radiotelemetry units as previously described by us. Blood pressure was measured on the conditional KO mouse model for five days before proceeding to tamoxifen injections, and for another five days 24 hours after the last tamoxifen injection. The change in mean arterial pressure (ΔMAP) was calculated by subtracting the average MAP measured for five days before tamoxifen injections to the MAP measured for five days after the tamoxifen injections. Day MAP was measured during the light cycle (06:00-18:00), while night MAP was measured during the nocturnal cycle (18:00 to 06:00). For experiments on C57Bl/6, basal blood pressure was measured continuously for 30 minutes before intraperitoneal injection of saline solution or peptide, and for 1.5 hours after the injection. […]"}, "[5]": {"tested_on": "thoracodorsal arteries (TDA)", "test": "Pressure myography: agonist-induced constriction of pressurized TDAs from C57Bl/6 mice with pannexin inhibitors or Panx1 mimetic peptides", "format": "cell-based, mouse", "method": "The contractile responses of pressurized thoracodorsal arteries (TDA) were measured as previously described. Briefly, TDA were isolated and placed in cold Krebs-HEPES until cannulation in a pressure arteriograph (Danish MyoTechnology). After a 30 minute equilibration period, cumulative concentrations of contractile agonists were applied to the TDA pressurized at 80 mmHg, and the vessel was visualized with an Olympus IX-71 microscope attached to a Hamamatsu EM-CCD camera coupled to Slidebook imaging software. […] Lastly, maximal diameter was measured at the end of each experiment in calcium-free Krebs-HEPES supplemented with EGTA (1 mmol/L) and sodium nitroprusside (10 μmol/L). In cases where the vessels were not constricting to the contractile agonist, their viability was assessed by applying 40 mM KCl and only TDA reaching 30% of the maximal diameter were considered for analysis. The contractile responses, as well as the basal tone, are expressed as a percentage of the maximal diameter.\nUsing pressure arteriography on TDA dissected from C57Bl/6 mice (as described; and aortic ring contraction, as described), we measured the effect of pannexin inhibitors, probenecid and 10Panx1, on the contractile response upon stimulation with different vasoconstrictors: phenylephrine (FIG. 1A), noradrenaline (also called norepinephrine) (FIG. 1B), serotonin (also known as 5-HT) (FIG. 1C) and endothelin-1 (FIG. 1D). […] In contrast, ^10Panx1 and probenecid had no effect on contraction of TDA measured in response to cumulative concentrations of serotonin or endothelin-1 (FIGS. 1C-D; Table 1).\nTo determine the region of Panx1 necessary for channel activation in response to α1AR stimulation, we produced short peptides derived from the intracellular regions of the Panx1 channel. We generated two peptides mimicking unique mouse Panx1 (mPanx1) sequences in the first intracellular loop (IL1 and IL2) and two peptides mimicking unique mPanx1 sequences in the C-terminal region, one in second intracellular loop (CT1) and one in the C-terminal tail (CT2) (FIG. 4A scissors indicate caspase 3 cleavage site; Table 3). All peptides also contained a TAT sequence to facilitate entry into cells and we verified the intracellular localization of each peptide by immunofluorescence detection of the TAT sequence in TDAs pre-incubated with each peptide (FIG. 7A). We tested the effect of each peptide on phenylephrine-induced contractile responses in pressurized TDAs from C57Bl/6 mice (FIGS. 4B-E). […] Note that these differences in effects of phenylephrine were similar in magnitude to those observed in arteries from SMC-specific Panx1-knockout mice and littermate controls (FIG. 2C, Table 2)."}, "[6]": {"molecular_target": "T2, Panx1", "settings": "neurons; cited from earlier work"}}, "data": [{"compound": "CC1(C)[C@@H](OC(=O)CCC(=O)O)CC[C@]2(C)[C@H]3C(=O)C=C4[C@@H]5C[C@@](C)(C(=O)O)CC[C@]5(C)CC[C@@]4(C)[C@]3(C)CC[C@@H]12", "note": "[CBX, carbenoxolone]", "values": [{"measurement": "effect on Panx1 whole-cell current", "setting": "[1]", "value": "abolished the current"}]}, {"compound": "N[C@@H]1[C@H]2CN(c3nc4c(cc3F)c(=O)c(C(=O)O)cn4-c3ccc(F)cc3F)C[C@@H]12", "note": "[Trovafloxacin]", "values": [{"measurement": "inhibition of Panx1 channels", "setting": "[2]", "value": "can also inhibit Panx1 channels"}]}, {"compound": "OC(c1cc(C(F)(F)F)nc2c(C(F)(F)F)cccc12)C1CCCCN1", "note": "(stereo not drawn) [mefloquine]", "values": [{"measurement": "effect on blood pressure", "setting": "[3]", "value": "induces hypotension"}]}, {"compound": "CC/C(=C(\\c1ccccc1)c1ccc(OCCN(C)C)cc1)c1ccccc1", "note": "[tamoxifen]", "values": [{"measurement": "heart rate", "setting": "[4]; Cre^+/Panx1^Fl mice, after tamoxifen", "value": "549±7", "unit": "beats per min"}, {"measurement": "decrease of mean arterial blood pressure", "setting": "[4]; Cre^+/Panx1^Fl mice, tamoxifen 1 mg/kg i.p. for ten days (induces SMC Panx1 deletion)", "value": "4.6±2.1", "unit": "mmHg"}, {"measurement": "change of mean arterial blood pressure", "setting": "[4]; mice retaining Panx1 (Cre^−/Panx1^WT, Cre^−/Panx1^Fl, Cre^+/Panx1^WT)", "value": "no evident changes"}]}, {"compound": "mPanx1 305-RRLKVYEILPTFDVLH-318 (SEQ ID NO: 5) linked with TAT; previously published to inhibit NMDA-mediated Panx1 opening [CT1]", "values": [{"measurement": "effect on phenylephrine-induced constriction of pressurized TDAs", "setting": "[5]; TAT-linked peptides, C57Bl/6 TDAs", "value": "did not affect"}, {"measurement": "EMAX of phenylephrine for TDA constriction", "setting": "[5]; in presence of the named peptide", "value": "50.7 ± 9.08 percentage of maximal diameter"}, {"measurement": "effect on NMDA-induced Panx1 activation", "setting": "[6]", "value": "prevent"}]}]}
